Assay: Drug leakage from hydrogel in PBS in absence of electric current
Assay type: physicochemical
Details: comparison of drugs loaded in the hydrogel
Procedure: The indomethacin-loaded hydrogels were left in […] PBS for 12 hours, and a 1 mL sample was then taken in order to assess for any drug release prior to exposure to an electric current. […] Further tests for drug release of the indomethacin-loaded hydrogels in the presence of an electric current were performed.
The system was therefore left in 50 mL of PBS for 12 hours, and 1 mL sample was taken and assessed for any presence of drugs. […] The hydrogels were then then assessed for their drug release capacity. They were once again immersed in PBS and an electric current was passed through them. This time, 35 samples were extracted and assessed by UV/visible spectroscopy for the amount of drugs which were released.
The amount of drug released ranged from 0.081 mg to 0.160 mg. The hydrogel was then assessed one last time for any leakage of drugs. The hydrogel was immersed in 50 mL of PBS for 12 hours.
One possible explanation for this phenomenon is the larger molecular size of indomethacin as compared to diclofenac sodium and ibuprofen. This larger molecular size means that indomethacin is better entrapped inside the three dimensional network of the hydrogel system.

| Structure (SMILES) | leakage of loaded drug from hydrogel when no electric current is applied |
| --- | --- |
| COc1ccc2c(c1)c(CC(=O)O)c(C)n2C(=O)c1ccc(Cl)cc1 [indomethacin] | no leakage occurred |
| CC(C)Cc1ccc(C(C)C(=O)O)cc1 (stereo not drawn) [ibuprofen] | drug leakage may still have occurred on the surface |
| O=C(O)Cc1ccccc1Nc1c(Cl)cccc1Cl [Diclofenac sodium] | drug leakage may still have occurred on the surface |
